In US20230142274A1 (SIMCERE PHARMACEUTICAL CO., LTD., priority 2020, published 2023):
Like-named read-outs stand apart in the source and are kept apart here.

Key:
Daudi cells = assay: Inhibition of human Daudi lymphoma cell proliferation (Cell-Titer Glo); assay type: cell-based; conditions: 3 days incubation, read-out: Anti-Proliferative Activity Against Daudi cells IC50
How it was run: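 Daudi cells in RPMI 1640 with 10% FBS were seeded and grown 24 h, then exposed for 3 days (37 °C, 5% CO2) to 10-point 3-fold serial dilutions at 0.25% final DMSO. Viability was read by CellTiter-Glo ATP luminescence, and IC50 was fitted from % inhibition against top/bottom controls.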

[1] = Metabolic stability in liver microsomes (CD-1 mouse); assay type: in vitro ADME; conditions: CD-1 mouse liver microsomes 0.5 mg/mL, compound 1 μM, NADPH 1 mM, 37° C.; for half-life at 1 μM: pH 7.4
Experimental: (§1) 1. Source of liver microsomes: human liver microsomes (Corning 452117), CD-1 mouse liver microsomes (XENOTECH M1000)
(§2) 1. Formulation of 100 mM phosphate buffer solution (PBS): 7.098 g of Na2HPO4 was weighed and ultrasonically dissolved in 500 mL of pure water to form Solution A. 3.400 g of KH2PO4 was weighed and ultrasonically dissolved in 250 mL of pure water to form Solution B. Solution A was placed in a stirrer and Solution B was slowly added until the pH value reached 7.4, thus formulating 100 mM PBS buffer solution.
(§3) The reaction system was formulated according to Table 3 below.
(§4) 3. The reaction system was placed in a water bath at 37° C. and pre-incubated for 10 minutes. 40 μL of 10 mM NADPH solution (NADPH was dissolved in 100 mM phosphate buffer solution) was added into the reaction system, and the final concentration of NADPH was 1 mM. 40 μL of Phosphate buffer solution was used instead of the NADPH solution as a negative control. The negative control was used to rule out the influence caused by the chemical stability of the compounds per se.
(§5) 4. The reaction system was added with 4 μL of 100 μM the compound of the present disclosure and Verapamil (the positive control compound) (DMSO as the vehicle), so that the reaction was initiated. The final concentration of the compound was 1 μM.
(§6) 5. At 0.5, 15, 30, 45 and 60 minutes, after being well mixed in a vortex oscillator, 50 μL of the incubated samples were taken out respectively, and the reaction was terminated with ice acetonitrile (4-fold) containing an internal standard. The samples were centrifuged at 3220 g for 45 minutes. After the centrifugation, 90 μL of the supernatants were transferred to a sample plate and mixed well with 90 μL of ultrapure water for LC-MS/MS analysis.
(§7) All data were calculated by Microsoft Excel software. Peak areas were determined from the extracted ion chromatograms. The in-vitro half-life (t1/2) of the parent drug was determined by the linear fitting of the natural logarithm of the elimination percentage of the parent drug versus time.
(§8) The in-vitro half-life (t1/2) was calculated from the slope: […]

[2] = Metabolic stability in liver microsomes (human); assay type: in vitro ADME; conditions: Human being liver microsomes 0.5 mg/mL, compound 1 μM, NADPH 1 mM, 37° C.; for half-life at 1 μM: pH 7.4
Experimental: as §1, §2, §3, §4, §5, §6, §7, §8

WI-38 cells = assay: Inhibition of human WI-38 embryonic lung cell proliferation (Cell-Titer Glo); assay type: cell-based; conditions: Homo sapiens, 72 h, 3 days incubation, read-out: Anti-Proliferative Activity Against WI-38 cells IC50
How it was run: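 WI-38 cells in EMEM with 10% FBS, seeded 24 h, then exposed to 10-point 3-fold compound dilutions (0.25% DMSO final) for 3 days at 37 °C, 5% CO2. Viability from intracellular ATP by Cell-Titer Glo luminescence; % inhibition normalised to top/bottom signals and IC50 fitted.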

IC50 (Daudi cells) [nM]	t1/2 [1] [min]	t1/2 [2] [min]	IC50 (Daudi cells; Homo sapiens, 72 h) [nM]	half-life at 1 μM [1] [min]	half-life at 1 μM [2] [min]	SMILES	IC50 (WI-38 cells) [µM]
20	204	231				COc1ccc(-c2ccc(-c3cnc([C@H]4CC[C@H](NC(=O)OC(C)C)CC4)s3)c([S@@](=N)(=O)C3CC3)c2)cn1 (stereo in doubt) [Example 94]	
			1620	> 500	> 500	CC(C)OC(=O)Nc1ccc(-c2cnc([C@H]3CC[C@H](NC(=O)OC(C)C)CC3)s2)c(P(C)(C)=O)c1 [Example 1, isopropyl trans-N-[3-dimethylphosphoryl-4-[2-[4-(isopropoxycarbonylamino)cyclohexyl]thiazol-5-yl]phenyl]carbamate]	> 25
			390	256	145	CC(C)OC(=O)Nc1ccc(-c2cnc([C@H]3CC[C@H](NC(=O)OC(C)C)CC3)s2)c(S(=O)(=O)C(C)C)c1 [Example 2, isopropyl trans-N-[4-[2-[4-(isopropoxycarbonylamino)cyclohexyl]thiazol-5-yl]-3-isopropylsulfonyl-phenyl]carbamate]	> 25
			1080	> 500	477	CC(C)OC(=O)Nc1ccc(-c2cnc(C3CCC(NC(=O)OC(C)C)CC3)s2)c(S(=N)(=O)C(C)C)c1 (stereo not drawn) [Example 3, isopropyl trans-N-[4-[2-[4-(isopropoxycarbonylamino)cyclohexyl]thiazol-5-yl]-3-(isopropylsulfonimidoyl)phenyl]carbamate]	> 25
			420	162	251	CC(C)OC(=O)Nc1ccc(-c2cnc(C3CCC(NC(=O)OC(C)C)CC3)s2)c([S+]([O-])C(C)C)c1 (stereo not drawn) [Example 32, isopropyl trans-N-[4-[2-[4-(isopropoxycarbonylamino)cyclohexyl]thiazol-5-yl]-3-isopropylsulfinyl-phenyl]carbamate]	23
			100	248	> 500	CC(C)OC(=O)Nc1ccc(-c2cnc([C@H]3CC[C@H](NC(=O)OC(C)C)CC3)s2)c(S(=O)(=O)C2CC2)c1 [Example 33, isopropyl trans-N-[3-cyclopropylsulfonyl-4-[2-[4-(isopropoxycarbonylamino)cyclohexyl]thiazol-5-yl]phenyl]carbamate]	> 25
			30	437	303	Cc1cc(Nc2ccc(-c3cnc([C@H]4CC[C@H](NC(=O)OC(C)C)CC4)s3)c(P3(=O)CCCC3)c2)n[nH]1 [Example 47, isopropyl trans-N-[4-[5-[4-[(5-methyl-1H-pyrazol-3-yl)amino]-2-(1-oxidophospholan-1-yl)phenyl]thiazol-2-yl]cyclohexyl]carbamate]	> 25
			6	432	> 500	Cc1cc(Nc2ccc(-c3cnc([C@H]4CC[C@H](NC(=O)OC(C)C)CC4)s3)c(S(=O)(=O)C3CC3)c2)n[nH]1 [Example 48, isopropyl trans-(4-(5-(2-(cyclopropylsulfonyl)-4-((5-methyl-1H-pyrazol-3-yl)amino)phenyl)thiazol-2-yl)cyclohexyl)carbamate]	15.6
			6	125	56	Cc1cc(Nc2ccc(-c3cnc([C@H]4CC[C@H](NC(=O)OC(C)C)CC4)s3)c(S(=O)(=O)C3CC3)c2)nn1C [Example 49, isopropyl trans-(4-(5-(2-(cyclopropylsulfonyl)-4-((1,5-dimethyl-1H-pyrazol-3-yl)amino)phenyl)thiazol-2-yl)cyclohexyl)carbamate]	> 25
			26	376	475	Cc1cc(Nc2ccc(-c3cnc(C4CCC(NC(=O)OC(C)C)CC4)s3)c(S(=N)(=O)C3CC3)c2)n[nH]1 (stereo not drawn) [Example 50, isopropyl trans-N-[4-[5-[2-(cyclopropylsulfonimidoyl)-4-]((5-methyl-1H-pyrazol-3-yl)amino]phenyl]thiazol-2-yl]cyclohexyl]carbamate]	> 25
			55	> 500	> 500	CC(C)OC(=O)N[C@H]1CC[C@H](c2ncc(-c3ccc(Nc4cn(C)nn4)cc3S(=N)(=O)C3CC3)s2)CC1 (stereo partly drawn) [Example 54]	> 25
			7	109	179	CC(C)OC(=O)N[C@H]1CC[C@H](c2ncc(-c3ccc(Nc4n[nH]c5ccccc45)cc3S(=O)(=O)C3CC3)s2)CC1 [Example 56, isopropyl trans-(4-(5-(4-((1H-indazol-3-yl)amino)-2-(cyclopropylsulfonyl)phenyl)thiazol-2-yl)cyclohexyl)carbamate]	> 25
			7	126	56	CC(C)OC(=O)N[C@H]1CC[C@H](c2ncc(-c3ccc(Nc4cc5ccccn5n4)cc3S(=O)(=O)C3CC3)s2)CC1 [Example 57, isopropyl trans-(4-(5-(2-(cyclopropylsulfonyl)-4-(pyrazolo[1,5-a]pyridin-2-ylamino)phenyl)thiazol-2-yl)cyclohexyl)carbamate]	> 25
			37	80	111	CC(C)OC(=O)N[C@H]1CC[C@H](c2ncc(-c3ccc(NC(=O)NCc4ccccc4)cc3S(=N)(=O)C3CC3)s2)CC1 (stereo partly drawn) [Example 65, isopropyl trans-(4-(5-(4-(3-benzylureido)-2-(cyclopropanesulfonimidoyl)phenyl)thiazol-2-yl)cyclohexyl)carbamate]	> 25
			100	169	187	CC(C)OC(=O)Nc1ccc(-c2cnc([C@H]3CC[C@H](NC(=O)OC(C)C)CC3)s2)c(S(=N)(=O)C2CC2)c1 (stereo partly drawn) [Example 68, isopropyl trans-N-[3-(cyclopropylsulfonimidoyl)-4-[2-[4-(isopropoxycarbonylamino)cyclohexyl]thiazol-5-yl]phenyl]carbamate]	> 25
			40	210	319	CC(C)OC(=O)NC1CCC(c2ncc(-c3ccc(Nc4ccc(F)cn4)cc3S(=N)(=O)C3CC3)s2)CC1 (stereo not drawn) [Example 81, isopropyl trans-N-[4-[5-[2-(cyclopropylsulfonimidoyl)]-4-[(5-fluoro-2-pyridyl)amino]phenyl]thiazol-2-yl]cyclohexyl]carbamate]	14
			4	346	382	Cc1cc(Nc2ccc(-c3cnc([C@H]4CC[C@H](NC(=O)OC(C)C)CC4)s3)c(S(=O)(=O)C3COC3)c2)n[nH]1 [Example 92, isopropyl trans-N-[4-[5-[4-[(5-methyl-1H-pyrazol-3-yl)amino]-2-(oxetan-3-ylsulfonyl)phenyl]thiazol-2-yl]cyclohexyl]carbamate]	19.5
			32	> 500	137	Cc1cc(Nc2ccc(-c3cnc([C@H]4CC[C@H](NC(=O)OC(C)C)CC4)s3)c(S(=N)(=O)C3CC3)c2)n(C)n1 (stereo partly drawn) [Example 98, isopropyl trans-(4-(5-(2-(cyclopropanesulfonimidoyl)-4-((1,3-dimethyl-1H-pyrazol-5-yl)amino)phenyl)thiazol-2-yl)cyclohexyl)carbamate]	> 25
			47	> 500	> 500	Cc1cc(Nc2ccc(-c3cnc([C@H]4CC[C@H](NC(=O)OC(C)C)CC4)s3)c(P3(=O)CCC3)c2)n[nH]1 [Example 103, isopropyl trans-(4-(5-(4-((5-methyl-1H-pyrazol-3-yl)amino)-2-(1-oxophosphetan-1-yl)phenyl)thiazol-2-yl)cyclohexyl)carbamate]	> 25
